The values that follow come from patent publication US7078400B2, “20-HETE synthase inhibitor” (Taisho Pharmaceutical Co., Ltd., priority 1999, dated 2006).

Structures are written as SMILES.

In the first test the test system is 20-HETE synthase originated from rat kidney microsome. The test can be described thus: Inhibitory effect of 20-HETE synthase originated from rat kidney microsome. Format: biochemical. The following applies: 1 μM of subject compound; 20-HETE production without compound set to 100%; rat kidney microsome. As to the method:
Experimental Example [Inhibitory effect of 20-HETE synthase originated from rat kidney microsome]
Regarding the compounds listed in Table 1, their inhibitory activity to production of 20-HETE was examined.
The subject compound for this examination was added to a buffer comprising 50 mM of 3-morpholinopropane sulfonic acid (pH7.4), 5 mM of magnesium chloride and 1 mM of ethylenediaminetetraacetic acid (EDTA) disodium salt.
After that, the rat kidney microsome (microsome fraction prepared from the kidney of a spontaneous hypertension rat (male, 6 weeks of age)) as an enzyme, [5,6,8,9,11,12,14,15] tritium-arachidonic acid (supplied by Amasham) as a substrate, and NADPH (supplied by Sigma) as a coenzyme were added and reacted for 1.5 hours at 37° C.
After the reaction, formic acid was added to stop the reaction, and then acetonitrile (final concentration of 50%) was added and left for 1.5 hours at room temperature.
The activity of 20-HETE synthase was measured by using a high performance liquid chromatograph having a detector for radioactive substances (supplied by Gilson), and equipped with a C18 reversed phase column (Biocyl C18, supplied by Bio-rad).
In the case of `COc1ccc(N/C=N/O)c(OC)c1` [Comp. 198], the “Inhibition rate (1 μM)” value is listed as 81.8.
For the compound `COC(=O)c1ccc(N/C=N/O)c(C)c1` [Comp. 199], the “Inhibition rate (1 μM)” value is reported as 85.6.
For `COC(=O)c1cc(I)ccc1N/C=N/O` [Comp. 201], the “Inhibition rate (1 μM)” value is on record as 70.1.
On the same count and under the same terms, the same measure for `O/N=C/Nc1c(F)cc(Br)cc1Br` [Comp. 210]: 78; for `Cc1ccc(CO)cc1N/C=N/O` [Comp. 214]: 31.9.
Same read-out and setting: the same measure for `O/N=C/Nc1c(F)c(F)c(F)c(F)c1F` [Comp. 215]: 36.1.
For the compound `O=[N+]([O-])c1ccc(Sc2ccc(N/C=N/O)cc2)cc1` [Comp. 223], the “Inhibition rate (1 μM)” value was found to be 52.2.
Take `O/N=C/Nc1ccc(SC(F)(F)F)cc1` [Comp. 224]: the “Inhibition rate (1 μM)” value is 47.1.
Consider `COc1ccc(/C=C/c2ccc(N/C=N/O)cc2)cc1` [Comp. 228], for which the “Inhibition rate (1 μM)” value was 72.0.
Take `O/N=C/Nc1cccc2ccccc12` [Comp. 242]: the “Inhibition rate (1 μM)” value is recorded as 50.6.
Regarding `Cc1cc(N/C=N/O)ccc1N1C(=O)c2ccc(Cl)cc2C1=O` [Comp. 244], the “Inhibition rate (1 μM)” value is recorded as 32.7.
Consider `CCC1(c2ccc(N/C=N/O)cc2)CCC(=O)NC1=O` (centres unmarked) [Comp. 245], for which the “Inhibition rate (1 μM)” value stood at 55.4.
Regarding `CNS(=O)(=O)Cc1ccc(N/C=N/O)cc1` [Comp. 259], the “Inhibition rate (1 μM)” value stood at 52.8.
On the same count and under the same terms, under `O/N=C/Nc1ccc2c(c1)Cc1cc(Br)ccc1-2` [Comp. 274] stands 94.5; under `COc1cc2c(cc1N/C=N/O)oc1ccccc12` [Comp. 277], 76.4.
With `O=C(Nc1ccccc1)c1ccccc1N/C=N/O` [Comp. 278], the “Inhibition rate (1 μM)” value was found to be 65.3.
Still for that read-out and setting: under `Cc1cc(C(C#N)c2ccc(Cl)cc2)c(Cl)cc1N/C=N/O` (centres unmarked) [Comp. 279] stands 42.8; under `CCCCN(CCCC)CCCOC(=O)c1ccc(N/C=N/O)cc1` [Comp. 281], 50.9.
`CN(C)c1ccc(/C=C/c2ccc(N/C=N/O)cc2)cc1` [Comp. 282]: the “Inhibition rate (1 μM)” value is 122.9.
In the case of `N#CC(c1ccccc1)c1ccc(N/C=N/O)cc1` (centres unmarked) [Comp. 283], the “Inhibition rate (1 μM)” value was found to be 62.6.
For `Cc1ccc2cc(N/C=N/O)ccc2n1` [Comp. 295], the “Inhibition rate (1 μM)” value is listed as 73.8.
As to `O/N=C/Nc1ccc2ncccc2c1` [Comp. 297], the “Inhibition rate (1 μM)” value is recorded as 71.1.
In the case of `CC(=O)N(C)c1ccc(N/C=N/O)cc1` [Comp. 301], the “Inhibition rate (1 μM)” value worked out at 62.1.
For `O=c1ccc2cc(N/C=N/O)ccc2o1` [Comp. 304], the “Inhibition rate (1 μM)” value turned out to be 68.5.
In the case of `O=S(=O)(CCSc1ccccc1N/C=N/O)c1ccc(Cl)cc1` [Comp. 315], the “Inhibition rate (1 μM)” value worked out at 50.7.
The same measure, in the same setting: under `CCCCCCCCOc1ccc(N/C=N/O)cc1` [Comp. 322] stands 117.5; under `CCC(C)CCOc1ccc(N/C=N/O)cc1` (centres unmarked) [Comp. 326], 110.8; under `CC(C)CCCOc1ccc(N/C=N/O)cc1` [Comp. 327], 110.1.
For `CC(C)CCOc1ccc(N/C=N/O)cc1` [Comp. 328], the “Inhibition rate (1 μM)” value is on record as 121.4.
On the same count and under the same terms, under `CCN(CC)CCOc1ccc(N/C=N/O)cc1` [Comp. 351] stands 89.
Same read-out and setting: the same measure for `O/N=C/Nc1ccc(OCCN2CCCCC2)cc1` [Comp. 357]: 98.

Staying with this test, now noted: 1 μM of the subject compound added; 20-HETE production without compound set to 100%; rat kidney microsome.
On to `Cc1ccc(N/C=N/O)c(C)c1` [Comp. 22], for which the “Inhibition rate (1 μM)” value was determined as 95.7.
Turning to `O/N=C/Nc1ccc(Br)cc1Cl` [Comp. 35], the “Inhibition rate (1 μM)” value is on record as 95.4.
On to `Cc1ccc(C(C)C)cc1N/C=N/O` [Comp. 57], for which the “Inhibition rate (1 μM)” value is listed as 59.1.
With `COc1ccccc1N/C=N/O` [Comp. 59], the “Inhibition rate (1 μM)” value is given as 49.0.
`Cc1cccc(N/C=N/O)c1` [Comp. 62]: the “Inhibition rate (1 μM)” value was determined as 69.5.
Consider `Cc1cccc(N/C=N/O)c1C` [Comp. 63], for which the “Inhibition rate (1 μM)” value is recorded as 49.3.
With `COc1cccc(N/C=N/O)c1` [Comp. 65], the “Inhibition rate (1 μM)” value is 59.3.
`CCOc1cccc(N/C=N/O)c1` [Comp. 66]: the “Inhibition rate (1 μM)” value was found to be 41.2.
Still for that read-out and setting: the same measure for `Cc1c(Cl)cccc1N/C=N/O` [Comp. 67]: 48.4; for `O/N=C/Nc1ccc(F)cc1Cl` [Comp. 69]: 58.7; for `CCCCCCCCc1ccc(N/C=N/O)cc1` [Comp. 70]: 32.9.
For the compound `CCCc1ccccc1N/C=N/O` [Comp. 71], the “Inhibition rate (1 μM)” value is listed as 42.5.
`O/N=C/Nc1ccc(I)cc1Cl` [Comp. 73]: the “Inhibition rate (1 μM)” value came to 99.9.
Turning to `Cc1cc(Br)cc(C)c1N/C=N/O` [Comp. 74], the “Inhibition rate (1 μM)” value stood at 43.7.
For `O/N=C/Nc1ccccc1Br` [Comp. 75], the “Inhibition rate (1 μM)” value came out at 46.9.
Regarding `COc1cc(N/C=N/O)cc(OC)c1` [Comp. 76], the “Inhibition rate (1 μM)” value was determined as 35.1.
In the case of `O/N=C/Nc1ccc(Br)cc1C(F)(F)F` [Comp. 77], the “Inhibition rate (1 μM)” value is 49.0.
Same read-out and setting: under `COc1ccc(N/C=N/O)cc1OC` [Comp. 78] stands 36.3.
With `O/N=C/Nc1ccccc1F` [Comp. 79], the “Inhibition rate (1 μM)” value is listed as 35.3.
For `O/N=C/Nc1cc(C(F)(F)F)ccc1Cl` [Comp. 80], the “Inhibition rate (1 μM)” value turned out to be 37.2.
In the case of `O/N=C/Nc1cccc(Cl)c1Cl` [Comp. 81], the “Inhibition rate (1 μM)” value came to 51.3.
For `Cc1ccc(N/C=N/O)cc1Cl` [Comp. 86], the “Inhibition rate (1 μM)” value was determined as 58.7.
As to `COc1ccc(C(F)(F)F)cc1N/C=N/O` [Comp. 90], the “Inhibition rate (1 μM)” value was found to be 36.5.
Turning to `O/N=C/Nc1cccc(I)c1` [Comp. 91], the “Inhibition rate (1 μM)” value was 36.6.
`CCOc1ccc(N/C=N/O)c([N+](=O)[O-])c1` [Comp. 94]: the “Inhibition rate (1 μM)” value was 41.2.
Turning to `Cc1cc(C)c(N/C=N/O)c([N+](=O)[O-])c1` [Comp. 95], the “Inhibition rate (1 μM)” value is recorded as 44.5.
Turning to `COc1ccc(N/C=N/O)cc1F` [Comp. 98], the “Inhibition rate (1 μM)” value is on record as 43.9.
`COc1cccc(N/C=N/O)c1OC` [Comp. 99]: the “Inhibition rate (1 μM)” value is 40.8.
With `COc1ccc(N/C=N/O)cc1Cl` [Comp. 101], the “Inhibition rate (1 μM)” value is 52.4.
In the case of `O/N=C/Nc1c(Br)cc(C2CCCCC2)cc1Br` [Comp. 102], the “Inhibition rate (1 μM)” value is 44.4.
As for `COc1ccc(C)c(N/C=N/O)c1` [Comp. 104], the “Inhibition rate (1 μM)” value is given as 31.9.
On the same count and under the same terms, the same measure for `O/N=C/Nc1ccc(C(O)(C(F)(F)F)C(F)(F)F)cc1` [Comp. 105]: 46.7.
As to `COc1cc(OC)c(N/C=N/O)cc1Cl` [Comp. 108], the “Inhibition rate (1 μM)” value was determined as 36.4.
Still for that read-out and setting: under `N#Cc1ccc(N/C=N/O)cc1` [Comp. 112] stands 37.4; under `O/N=C/Nc1ccc(Cl)cc1Br` [Comp. 117], 71.6.
On to `COC(=O)c1ccc(N/C=N/O)cc1` [Comp. 123, N-(4-methoxycarbonylphenyl)-N′-hydroxyformamidine], for which the “Inhibition rate (1 μM)” value stood at 92.7.
Consider `O/N=C/Nc1ccccc1` [Comp. 135], for which the “Inhibition rate (1 μM)” value came out at 49.3.
With `O=C(OC/C=C/c1ccccc1)c1ccccc1N/C=N/O` [Comp. 138], the “Inhibition rate (1 μM)” value is listed as 44.0.
For `CCc1cccc(C)c1N/C=N/O` [Comp. 139], the “Inhibition rate (1 μM)” value is reported as 69.7.
Same read-out and setting: the same measure for `Cc1ccc(N/C=N/O)c([N+](=O)[O-])c1` [Comp. 143]: 37.3.
In the case of `CSCc1cccc(C(F)(F)F)c1N/C=N/O` [Comp. 149], the “Inhibition rate (1 μM)” value is on record as 36.5.
On to `CC(=O)Nc1ccc(N/C=N/O)cc1C(F)(F)F` [Comp. 150], for which the “Inhibition rate (1 μM)” value is 34.1.
Take `O/N=C/Nc1ccc(OC(F)F)cc1` [Comp. 151]: the “Inhibition rate (1 μM)” value is given as 108.2.
The same measure, in the same setting: under `O/N=C/Nc1ccccc1OC(F)F` [Comp. 153] stands 39.4.
Turning to `COc1ccc(Oc2ccc(C(F)(F)F)cc2N/C=N/O)cc1` [Comp. 156], the “Inhibition rate (1 μM)” value is reported as 39.4.
Consider `CCCCCCCCCCc1ccc(N/C=N/O)cc1` [Comp. 157], for which the “Inhibition rate (1 μM)” value came to 121.4.
For `CSc1cccc(N/C=N/O)c1` [Comp. 162], the “Inhibition rate (1 μM)” value was 62.6.
Regarding `CCc1cccc(C(C)C)c1N/C=N/O` [Comp. 163], the “Inhibition rate (1 μM)” value stood at 40.0.
Still for that read-out and setting: the same measure for `Cc1ccc(N/C=N/O)c(F)c1` [Comp. 165]: 105.7; for `Cc1ccc(N/C=N/O)c(CO)c1` [Comp. 171]: 54.1; for `CC(C)(C)c1cccc(N/C=N/O)c1` [Comp. 175]: 69.9.
Consider `CCCc1cccc(N/C=N/O)c1` [Comp. 179], for which the “Inhibition rate (1 μM)” value worked out at 63.5.
As to `CCOC(=O)c1ccc(N/C=N/O)cc1` [Comp. 183], the “Inhibition rate (1 μM)” value is listed as 92.0.
As for `CC(C)OC(=O)c1ccc(N/C=N/O)cc1` [Comp. 188], the “Inhibition rate (1 μM)” value turned out to be 59.1.
With `CC(C)COC(=O)c1ccc(N/C=N/O)cc1` [Comp. 189], the “Inhibition rate (1 μM)” value was 116.8.
On to `COC(=O)c1ccc(OC)c(N/C=N/O)c1` [Comp. 190], for which the “Inhibition rate (1 μM)” value was 44.9.
`COc1cc(C#N)c(N/C=N/O)cc1OC` [Comp. 196]: the “Inhibition rate (1 μM)” value was 46.9.

Staying with this test, now noted: concentration at which production of 20-HETE was inhibited to 50%; rat kidney microsome.
One may read the IC50 as the point on the concentration scale where inhibition reaches its midpoint. Low values mean higher potency, high ones lower potency. As to `O/N=C/Nc1ccc(Br)cc1Cl` [Comp. 35], the concentration for half-maximal inhibition (IC50) came out at 86.5 nM.
